Consider two compounds from PMC11729428, “New Potent Inhibitor of Transforming Growth Factor-Beta (TGFβ) Signaling that is Efficacious against Microsatellite Stable Colorectal Cancer Metastasis in Combination with Immune Checkpoint Therapy in Mice” (ACS Pharmacology & Translational Science, 2024).

In data set [1] the target is T1, ALK1 (ACVRL1) (Homo sapiens, UniProt P37023).
T1 construct: purchased Eurofins/DiscoveryX (KINOMEscan service)
Briefly: KINOMEscan competitive binding assay (Kd). As to conditions: analyses herein; read-out: Binding constant (Kd) ALK1 (ACVRL1). An excerpt:
(§1) 5. Methods for In vitro characterizations of HYL001
(§2) Kinase affinity and selectivity
(§3) Kd values were obtained by an 11 -point
(§4) (BMPR1A), ALK4 (ACVR1B), ALK6 (BMPR1B), ACVR2B and TGFβ R2. […]

In data set [2] the target is T2, ALK2 (ACVR1) (Homo sapiens, UniProt Q04771).
T2 construct: purchased Eurofins/DiscoveryX (KINOMEscan service)
Briefly: KINOMEscan competitive binding assay (Kd). To be noted: analyses herein; read-out: Binding constant (Kd) ALK2 (ACVR1).
Description: as §1, §2, §3, §4

In data set [3] the target is T3, ACVR2B (Homo sapiens, UniProt Q13705).
T3 construct: purchased Eurofins/DiscoveryX (KINOMEscan service)
Briefly: KINOMEscan competitive binding assay (Kd). As to conditions: analyses herein; read-out: Binding constant (Kd) ACVR2B.
Description: as §1, §2, §3, §4

The target of another data set is T4, TGFBR2 (Homo sapiens, UniProt P37173).
T4 construct: purchased Eurofins/DiscoveryX (KINOMEscan service)
Briefly: KINOMEscan competitive binding assay (Kd). To be noted: analyses herein; read-out: Binding constant (Kd) TGFBR2.
Description: as §1, §2, §3, §4

Another data set deals with T5, ALK3 (BMPR1A) (Homo sapiens, UniProt P36894).
T5 construct: purchased Eurofins/DiscoveryX (KINOMEscan service)
Briefly: KINOMEscan competitive binding assay (Kd). To be noted: analyses herein; read-out: Binding constant (Kd) ALK3 (BMPR1A).
Description: as §1, §2, §3, §4

The target of a further data set is T6, ALK6 (BMPR1B) (Homo sapiens, UniProt O00238).
T6 construct: purchased Eurofins/DiscoveryX (KINOMEscan service)
Briefly: KINOMEscan competitive binding assay (Kd). To be noted: analyses herein; read-out: Binding constant (Kd) ALK6 (BMPR1B).
Description: as §1, §2, §3, §4

A further data set deals with hERG potassium channel (Homo sapiens, UniProt Q12809). Briefly: hERG automated patch clamp on CHO-K1 cells. As to conditions: micromolar concentrations.
Data set [4] relates to panel of key proteins (cell receptors, neurotransmitter transporters, and ion channels). Briefly: In vitro safety pharmacology, binding (SafetyScreen 44). To be noted: 10 μM HYL001. The method, then: To identify potential adverse off-target drug interactions and derisk the development of HYL001 as a drug,[22] we performed binding and enzymatic inhibition assays with a panel of key proteins (mainly cell receptors, neurotransmitter transporters, and ion channels). […]
analysis by LC-MS/MS, using MRM mode. […]
related to phase I and phase II metabolism, respectively.
The PARs were used for calculation of metabolic stability. The 0 min area ratio was considered as 100%. The […]
incubation volume / number of cells (in millions) x K e. To calculate into full body context, the values of 120 […]
In vitro safety pharmacology […]
compared with historical values determined at Eurofins. Binding was defined as the % inhibition of the signal […]
enzyme activity. […] Results showing
The tail current amplitude, induced by a one […]
and expressed as % inhibition.
The Ames test was performed at Xenomatrix (Allschwil, Switzerland). Bacteria from the S. typhimurium

Data set [5] can be described thus: Plasma protein binding by rapid equilibrium dialysis, mouse plasma. The method, then: 5. Methods for In vitro characterizations of HYL001 […]
Rapid equilibrium dialysis was performed in triplicates with a rapid equilibrium dialysis (RED) by Sai Life Sciences Lt. (Telangana, India). The RED device contains a dialysis membrane with a molecular weight cut -off […]
of 8,000 Da, separating two chambers for plasma and buffer, respectively. […]
were added to the plasma chamber, versus phosphate buffer saline (pH 7.4) to the buffer chamber. Dialysis was performed for 4 h with 100 RPM shaking at 37 °C. […]
compounds in plasma were either frozen immediately (T0 sample), or incubated at 37 °C for 4 h without dialysis (non-dialysed), respectively.
Following dialysis, an aliquot was removed from either chamber and diluted with equal volume of opposite matrix to nullify the matrix effect. Similarly, buffer was added to recovery and stability samples. Next, acetonitrile (containing internal standard, glipizide) was added to the mixtures for protein precipitation and vortexed for 5 minutes. The samples were centrifuged at 4000 RPM at 4 °C for 10 min and the supernatant was submitted for liquid chromatography mass spectrometry (LC-MS/MS) analysis. Samples were monitored for parent compound using multiple reaction monitoring (MRM) mode.
The peak area ratios (PAR, analyte versus internal standard) in plasma vs bufffer were used to determine the fraction of compound bound to plasma proteins. The following equation was used to determine the extent of plasma protein binding: percent free drug = 100% x (PARbuffer / PARplasma); percent bound drug = 100 - % free drug. Recovery was calculated as 100% x (PARplasma + PARbuffer)dialysed / (PARplasma)non-dialysed; stability as 100% x (PAR)non-dialysed / (PARplasma)frozen at T0. […]

A short description of data set [6]: Literature oral pharmacokinetics in mice. Format: in vivo. To be noted: female, mouse, plasma, mice (♀ CD-1), 75 mg/kg, estimated using AUClast of ref 20. An excerpt: Table 2 Pharmacokinetics of HYL001 in Preclinical Species after Oral Administration ^a | column: Cl/F (mL/min/kg)
Data set [7] addresses T3, ACVR2B. Also on record: method as in earlier work. As to conditions: reported data ref 15; read-out: Binding constant (Kd) ACVR2B; cited from earlier work.
Data set [8] deals with T1, ALK1 (ACVRL1). On the set-up: method as in earlier work. To be noted: reported data ref 15; read-out: Binding constant (Kd) ALK1 (ACVRL1); cited from earlier work.
In data set [9] the test system is mouse tumor organoids (MTOs), CRC liver metastases. On the set-up: method as in PMID 29443964. To be noted: murine CRC liver metastasis model ref 5; cited from earlier work.
The target of data set [10] is T2, ALK2 (ACVR1). On the set-up: method as in earlier work. To be noted: reported data ref 15; read-out: Binding constant (Kd) ALK2 (ACVR1); cited from earlier work.

SMILES strings stand for the structures. Where two headings read alike, the source gives them in different places. A value given as a limit tells only on which side of the number the result lay.

T2 sequence (Q04771 21-509): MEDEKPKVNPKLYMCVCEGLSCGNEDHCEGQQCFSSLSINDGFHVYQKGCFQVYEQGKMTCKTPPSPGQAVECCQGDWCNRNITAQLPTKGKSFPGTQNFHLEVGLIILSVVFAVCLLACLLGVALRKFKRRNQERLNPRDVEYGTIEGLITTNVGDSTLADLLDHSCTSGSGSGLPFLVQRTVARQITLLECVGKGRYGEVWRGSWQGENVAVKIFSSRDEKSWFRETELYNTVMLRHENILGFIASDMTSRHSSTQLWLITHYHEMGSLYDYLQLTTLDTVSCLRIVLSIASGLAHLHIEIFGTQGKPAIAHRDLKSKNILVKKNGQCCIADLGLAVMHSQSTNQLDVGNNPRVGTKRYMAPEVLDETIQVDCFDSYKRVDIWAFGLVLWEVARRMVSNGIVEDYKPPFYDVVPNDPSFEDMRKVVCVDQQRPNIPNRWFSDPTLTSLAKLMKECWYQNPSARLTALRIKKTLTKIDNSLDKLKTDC
T3 sequence (Q13705 19-512): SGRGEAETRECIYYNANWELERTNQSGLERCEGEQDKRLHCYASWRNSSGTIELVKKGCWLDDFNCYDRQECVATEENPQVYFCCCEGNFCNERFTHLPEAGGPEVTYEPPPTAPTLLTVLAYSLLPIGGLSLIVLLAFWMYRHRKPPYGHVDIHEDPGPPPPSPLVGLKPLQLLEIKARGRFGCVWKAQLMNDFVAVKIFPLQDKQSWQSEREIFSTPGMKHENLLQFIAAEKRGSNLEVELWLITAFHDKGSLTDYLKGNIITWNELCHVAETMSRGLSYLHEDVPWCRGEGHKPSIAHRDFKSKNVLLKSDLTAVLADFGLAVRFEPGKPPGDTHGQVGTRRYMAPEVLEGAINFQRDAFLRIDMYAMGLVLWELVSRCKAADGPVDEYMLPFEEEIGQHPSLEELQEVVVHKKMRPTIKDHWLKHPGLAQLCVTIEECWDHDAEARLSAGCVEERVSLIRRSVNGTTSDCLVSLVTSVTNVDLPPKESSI
T1 sequence (P37023 22-503): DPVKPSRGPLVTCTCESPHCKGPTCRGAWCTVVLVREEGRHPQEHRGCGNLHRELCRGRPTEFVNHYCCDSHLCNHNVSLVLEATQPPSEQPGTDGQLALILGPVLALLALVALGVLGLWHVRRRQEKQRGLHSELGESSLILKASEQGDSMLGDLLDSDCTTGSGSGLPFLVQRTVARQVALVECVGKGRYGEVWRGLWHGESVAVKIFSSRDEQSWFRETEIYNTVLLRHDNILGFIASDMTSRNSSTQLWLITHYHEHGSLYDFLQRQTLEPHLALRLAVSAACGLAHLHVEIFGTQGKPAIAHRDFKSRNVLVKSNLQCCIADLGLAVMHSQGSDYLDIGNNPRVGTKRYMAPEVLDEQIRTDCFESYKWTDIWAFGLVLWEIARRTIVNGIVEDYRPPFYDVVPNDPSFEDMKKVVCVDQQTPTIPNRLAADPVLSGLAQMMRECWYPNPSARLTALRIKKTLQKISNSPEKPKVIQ
Chain of hERG potassium channel (Q12809 whole entry): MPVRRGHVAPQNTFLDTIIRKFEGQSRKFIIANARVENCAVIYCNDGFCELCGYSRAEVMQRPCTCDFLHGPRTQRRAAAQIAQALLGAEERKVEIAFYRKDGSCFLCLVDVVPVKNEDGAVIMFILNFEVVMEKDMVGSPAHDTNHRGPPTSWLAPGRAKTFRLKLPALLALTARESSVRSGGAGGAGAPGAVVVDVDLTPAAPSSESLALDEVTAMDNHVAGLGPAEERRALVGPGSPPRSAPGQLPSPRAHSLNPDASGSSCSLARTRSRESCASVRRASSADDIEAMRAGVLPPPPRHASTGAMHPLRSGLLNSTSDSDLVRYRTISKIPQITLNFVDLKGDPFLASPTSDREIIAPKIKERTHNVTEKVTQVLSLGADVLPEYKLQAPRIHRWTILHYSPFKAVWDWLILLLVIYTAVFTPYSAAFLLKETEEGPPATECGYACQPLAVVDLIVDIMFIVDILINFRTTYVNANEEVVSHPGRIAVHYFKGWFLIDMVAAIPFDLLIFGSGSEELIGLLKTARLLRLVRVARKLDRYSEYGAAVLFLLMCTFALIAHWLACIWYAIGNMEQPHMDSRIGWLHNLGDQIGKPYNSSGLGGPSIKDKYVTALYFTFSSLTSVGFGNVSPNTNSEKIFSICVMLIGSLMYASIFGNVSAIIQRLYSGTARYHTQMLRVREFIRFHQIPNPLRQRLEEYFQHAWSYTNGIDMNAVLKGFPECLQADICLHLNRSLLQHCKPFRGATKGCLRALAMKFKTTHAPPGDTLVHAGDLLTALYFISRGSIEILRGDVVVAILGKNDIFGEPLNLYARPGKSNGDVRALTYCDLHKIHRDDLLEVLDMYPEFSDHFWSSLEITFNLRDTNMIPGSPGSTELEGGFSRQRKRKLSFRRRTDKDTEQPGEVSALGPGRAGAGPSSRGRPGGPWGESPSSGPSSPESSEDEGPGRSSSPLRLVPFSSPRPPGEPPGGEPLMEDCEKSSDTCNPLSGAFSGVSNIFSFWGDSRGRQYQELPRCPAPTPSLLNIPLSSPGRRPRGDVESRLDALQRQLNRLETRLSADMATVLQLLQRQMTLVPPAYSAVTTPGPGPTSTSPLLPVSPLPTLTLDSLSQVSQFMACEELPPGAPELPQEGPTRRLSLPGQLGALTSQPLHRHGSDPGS
T4 sequence (P37173 23-567): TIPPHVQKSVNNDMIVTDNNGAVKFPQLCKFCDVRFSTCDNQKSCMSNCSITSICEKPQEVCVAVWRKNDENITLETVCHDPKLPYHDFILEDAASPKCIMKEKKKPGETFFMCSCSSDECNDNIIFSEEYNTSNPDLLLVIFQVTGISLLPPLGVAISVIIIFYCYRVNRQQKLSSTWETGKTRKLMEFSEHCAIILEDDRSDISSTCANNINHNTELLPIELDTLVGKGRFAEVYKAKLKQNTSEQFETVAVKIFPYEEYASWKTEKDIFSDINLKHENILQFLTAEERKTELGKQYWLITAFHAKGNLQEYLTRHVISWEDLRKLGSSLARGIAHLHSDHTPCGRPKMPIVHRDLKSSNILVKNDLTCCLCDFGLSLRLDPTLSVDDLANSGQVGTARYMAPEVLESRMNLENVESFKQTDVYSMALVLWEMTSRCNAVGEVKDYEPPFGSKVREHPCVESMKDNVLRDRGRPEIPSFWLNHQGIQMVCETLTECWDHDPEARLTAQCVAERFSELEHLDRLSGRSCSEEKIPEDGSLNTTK
T6 sequence (O00238 14-502): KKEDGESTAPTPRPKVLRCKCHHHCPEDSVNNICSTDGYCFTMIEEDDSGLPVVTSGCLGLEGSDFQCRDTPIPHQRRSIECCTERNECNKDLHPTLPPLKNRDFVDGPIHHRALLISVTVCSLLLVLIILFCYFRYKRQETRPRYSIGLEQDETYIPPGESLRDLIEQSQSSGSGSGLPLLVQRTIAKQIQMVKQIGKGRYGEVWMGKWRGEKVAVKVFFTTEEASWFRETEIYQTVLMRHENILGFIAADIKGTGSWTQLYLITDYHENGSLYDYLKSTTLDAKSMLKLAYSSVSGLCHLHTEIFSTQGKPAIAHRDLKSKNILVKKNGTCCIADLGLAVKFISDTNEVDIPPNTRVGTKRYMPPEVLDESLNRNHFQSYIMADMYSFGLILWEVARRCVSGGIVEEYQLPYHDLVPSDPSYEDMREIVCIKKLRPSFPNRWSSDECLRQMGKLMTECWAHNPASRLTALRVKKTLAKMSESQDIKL
T5 sequence (P36894 24-532): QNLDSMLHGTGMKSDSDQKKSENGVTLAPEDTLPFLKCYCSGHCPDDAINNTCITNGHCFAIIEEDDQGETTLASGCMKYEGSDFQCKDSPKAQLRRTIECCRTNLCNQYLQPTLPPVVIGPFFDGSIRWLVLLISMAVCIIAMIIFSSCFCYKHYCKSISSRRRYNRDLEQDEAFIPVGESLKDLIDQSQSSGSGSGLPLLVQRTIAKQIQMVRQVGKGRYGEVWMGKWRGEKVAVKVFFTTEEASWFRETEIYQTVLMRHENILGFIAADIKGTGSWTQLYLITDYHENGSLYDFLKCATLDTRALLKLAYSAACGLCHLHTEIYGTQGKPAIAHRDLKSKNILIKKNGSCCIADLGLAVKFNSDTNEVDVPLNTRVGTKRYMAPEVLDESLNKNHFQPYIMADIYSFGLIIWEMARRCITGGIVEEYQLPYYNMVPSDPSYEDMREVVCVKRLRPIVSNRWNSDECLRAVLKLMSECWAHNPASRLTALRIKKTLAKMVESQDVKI
Description for hERG potassium channel: clamp (Eurofins, Celle L’Evescault, France) on CHO -K1 cells. The tail current amplitude, induced by a one
second test pulse to -40 mV after a two second pulse to +20 mV, was measured before and aft er drug incubation

In the case of `Cc1cccc(-c2nn3c(c2-c2ccnc4ccc(O)cc24)CCC3)n1` [HYL001, 4-(2-(6-Methylpyridin-2-yl)-5,6-dihydro-4H-pyrrolo[1,2-b]pyrazol-3-yl)quinolin-6-ol], the Kd at ALK1 (ACVRL1) [1] came out at 11 µM; on ALK2 (ACVR1) [2], 7.5 µM; on ACVR2B [3] it was 0.1 µM; at TGFBR2, 2 µM; on ALK3 (BMPR1A), 6.9 µM; at ALK6 (BMPR1B), 0.16 µM. Besides, the “hERG inhibition (in words)” value at hERG potassium channel is “low inhibition”. For the same compound, the “Inhibition of binding to any safety panel target” value in data set [4] is no more than 50%. In addition, in [5] (mice plasma, 37 °C), the “% Compound remaining at 4 hrs” value is recorded as 113.1%. The compound also showed a recovery at 4 h, 5 µM in data set [5] (mouse, plasma (rapid equilibrium dialysis device), pH 7.4) of 112%. In [5] (mouse, plasma, pH 7.4), this compound gave a fraction unbound at 4 h, 5 µM of 0.048.
Regarding `Cc1cccc(-c2nn3c(c2-c2ccnc4ccc(C(N)=O)cc24)CCC3)n1` [galunisertib], the CL/F in data set [6] was 402 mL/min/kg. Besides, the Kd is 0.694 µM on ACVR2B [7], 24.9 µM on ALK1 (ACVRL1) [8] and 35.7 µM at ALK2 (ACVR1) [10]. Besides, the Efficacious murine dose in [9] is 720–800 mg/kg twice daily (BID).
